What was measured:
Aβ42 = molecular target: T1, Aβ42 (Homo sapiens, UniProt P05067); assay: ThT kinetic assay of Aβ42 aggregation (unseeded); assay type: biochemical
T1 construct: made in house; host or cells: E. coli BL21 Gold (DE3)
Text: The recombinant Aβ(M1-42) peptide ([…]-SNKGAIIGLMVGGVVIA [SEQ ID NO: 1]), here called Aβ42, was expressed in the E. coli BL21 Gold (DE3) strain (Stratagene, Calif., U.S.A.) and purified as described previously with slight modifications. Briefly, the purification procedure involved sonication of E. coli cells, dissolution of inclusion bodies in 8 M urea, and ion exchange in batch mode on diethylaminoethyl cellulose resin and lyophylization. The lyophilized fractions were further purified using Superdex 75 HR 26/60 column (GE Healthcare, Buckinghamshire, U.K.) and eluates were analyzed using SDS-PAGE for the presence of the desired protein product. The fractions containing the recombinant protein were combined, frozen using liquid nitrogen, and lyophilized again.
Except for Netoglitazone, which was custom synthesised by GVK BIO, all small molecules were purchased with a purity greater than 99%. Small molecules were first solubilized in 100% DMSO to a concentration of 5 mM, and then diluted in the peptide solution to reach a final DMSO concentration of maximum 1-3%. We verified that the addition of DMSO in the reaction mixture has no effect on Aβ42 aggregation.
Solutions of monomeric peptides were prepared by dissolving the lyophilized Aβ42 peptide in 6 M GuHCl. Monomeric forms were purified from potential oligomeric species and salt using a Superdex 75 10/300 GL column (GE Healthcare) at a flowrate of 0.5 mL/min, and were eluted in 20 mM sodium phosphate buffer, pH 8 supplemented with 200 μM EDTA and 0.02% NaN3. The centre of the peak was collected, and the peptide concentration was determined from the absorbance of the integrated peak area using ε280=1490 L mol^−1 cm^−1. The obtained monomer was diluted with buffer to the desired concentration and supplemented with 20 μM Thioflavin T (ThT) from a 1 mM stock. All samples were prepared in low binding Eppendorf tubes on ice using careful pipetting to avoid introduction of air bubbles. Each sample was then pipetted into multiple wells of a 96-well half-area, low-binding, clear bottom and PEG coating plate (Corning 3881), 80 μL per well. Aβ42 kinetics have been performed in the absence or the presence of Netoglitazone, Mitoglitazone, Rosiglotazone, Rivoglitazone, Pioglitazone, Ciglitazone, Englitazone, Darglitazone, Troglitazone and Balaglitazone.
The time evolution of the total fibril mass concentration is described as a function only of the initial conditions and the rate constants of the system by the integrated rate law given by Eq. (54) in Cohen et al., J Chem Phys 135, 065106, 2011.
These are related to the rate of formation of new aggregates through primary pathways λ=√{square root over (2k+knm(0)^n^c)} and through secondary pathways κ=√{square root over (2k+k2m(0)^n^2^+1)}, where the initial concentration of soluble monomers is denoted by m(0), nc and n2 describe the dependencies of the primary and secondary pathways on the monomer concentration (nc=n2=2 for Aβ42), and kn, k+ and k2 are the rate constants of the primary nucleation, elongation and secondary nucleation, respectively (Cohen et al., Proc Natl Acad Sci USA, 110(24), 9758-63, 2013).
Inhibitors can interfere with the aggregation process by inhibiting one or more of the individual microscopic steps.

Aβ plaques = assay: Aβ plaque quantification in APPPS1 transgenic mice; assay type: in vivo; details: 75 mg/kg/day once daily for 90 days from 60 days of age
Procedure: APPPS1 transgenic mice were used in the study, which co-express the Swedish mutation […] and PS1 mutation L166P under the control of the neuron-specific Thy-1 promoter on a C57BL/6 genetic background. APPPS1 mice were habituated ahead of the study to voluntarily drink a condensed milk formulation from a pipette. The condensed milk used in the study is commercially available (Migros) and contains milk, sugar, stabilizer E339. Body weight was measured ahead of commencing the study to calculate the dose of Netoglitazone for each mouse and to calculate the total blood volume. Mice aged 60 days old were then dosed once daily with a pipette for 90 days. The pipette contained 40-80 μL consisting of either condensed milk (2 ml/kg/day) only (placebo cohort) or condensed milk (2 ml/kg/day) and Netoglitazone (75 mg/kg/day). Blood was collected via retro-orbital sampling to monitor the concentration of Netoglitazone after 7 days and 28 days. Visual monitoring of the mice and measurement of body weight were conducted daily and every other week respectively. At the end of the experiment (i.e. after 90 days of once daily treatment such that mice were 150 days old), mice were euthanized and their brains were analyzed as outlined below. […]
The image files were analysed using custom-coded software. […]

T1 sequence (P05067 671-713): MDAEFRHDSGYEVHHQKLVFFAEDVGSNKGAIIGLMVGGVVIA

For `O=C1NC(=O)C(Cc2ccc3cc(OCc4ccccc4F)ccc3c2)S1` (stereo not drawn) [Netoglitazone], the “Effect on rate constants of primary (knk+) and secondary (k2k+) pathways” value (Aβ42; 2 μM Aβ42, unseeded, fit of rate laws) was “can affect both nucleation pathways in Aβ42 aggregation to different extents”, the “Delay of Aβ42 aggregation (ThT fibril formation)” value (Aβ42; 2 μM Aβ42, range of Netoglitazone concentrations) was “substantial delay in Aβ42 aggregation was observed in a concentration-dependent manner” and the “Relative number of Aβ plaques in brain vs placebo” value (Aβ plaques) was “decrease in the relative number of Aβ plaques”.

From patent publication US20210145801A1, “THERAPY FOR PROTEIN MISFOLDING DISEASE” (WREN THERAPEUTICS LIMITED, priority 2018, published 2021)
